Data on two compounds can be found in paper PMC10222203 (Pharmaceutics, 2023).

Data set [1] can be described thus: in vitro.
For data set [2] the following is noted: rat; for Kp at 4 h / Kp uu: in vivo; for Kp at 4 h / Total brain-to-plasma concentration ratio, Kp,brain: 0.5 mg/kg, 4 h infusion, total dose 0.5 mg/kg; for Kp at 4 h: Total brain-to-plasma concentration ratio, Kp,brain; for Kp at 4 h / Kp uu / Kp,uu,brain as percent equilibrating across the BBB / Total brain-to-plasma concentration ratio, Kp,brain / Unbound brain-to-plasma concentration ratio, Kp,uu,brain: steady state; for Kp uu: Unbound brain-to-plasma concentration ratio, Kp,uu,brain; for Kp uu / Unbound brain-to-plasma concentration ratio, Kp,uu,brain: Kp,brain/(fu,plasma × Vu,brain); for Total steady-state plasma concentration, Cplasma,ss: listed in Table S3. The method, then:
In order to assure the accurate assessment of the extent of BBB transport and to minimize the use of animals, the achievement of steady-state conditions of total plasma concentration and equilibration across the blood–brain interface are critical. […] The infusion was administered through the catheter placed in the femoral vein. Blood (200 µL) was sampled from the catheter in the femoral artery at 1, 2, and 3 h into heparinized tubes to ensure that steady-state conditions were obtained in plasma. At 4 h, blood was sampled through heart puncture using EDTA vacutainers (BD, Eysins, Switzerland), and the whole brain was collected. The blood samples were centrifuged, and plasma was collected. All samples were immediately frozen on dry ice and then kept at −20 °C pending analysis.
The in vivo total brain-to-plasma concentration ratio, Kp,brain, was studied by measuring steady-state concentrations in plasma and the total amount in the brain (Equation (1)). (1) Kp,brain=Abrain/Cplasma where Abrain is the total amount of peptide in the brain calculated using Equation (2), including compensation for the residual cerebral blood, and Cplasma is total plasma concentration (µg/mL).
The unbound brain-to-plasma ratio, Kp,uu,brain, was calculated using Equation (13) according to the CMA [37], where Kp,brain is the total brain-to-plasma ratio, fu,plasma is the unbound fraction in plasma as measured with equilibrium dialysis, and Vu,brain is the unbound volume of distribution in brain measured with the brain slice technique. (13) Kp,uu,brain=Kp,brain/fu,plasma×Vu,brain

The next data set is described as follows: in vivo. To be noted: rat; for Half-life, t½ / half-life: 10 min intravenous infusion; for Half-life, t½ / AUC(0-inf) / Vd / clearance / half-life: 0.5 mg/kg; for AUC(0-inf) / Vd / clearance / half-life: iv; for half-life: t½. The method, then: Since previous pharmacokinetic data were extremely sparse, a pilot study was performed in rats (n = 2), and simulations were performed in Berkeley Madonna (version 8.3.18 for Windows, Berkeley, CA, USA), defining suitable dose and sampling intervals from the parameters obtained in the pilot study. The surgical implantation of catheters made of polyethylene (PE50) in the femoral vein and artery for dosing of peptide and sampling of blood, respectively, was performed the day before experiments under isoflurane anaesthesia. The animals were then housed in a CMA120 system (CMA, Solna, Sweden) for freely moving animals with ad libitum access to food and water. […] All samples were added to heparinized low-binding Eppendorf tubes. The blood samples were centrifuged, and plasma was transferred to new Eppendorf tubes and immediately frozen at −20 °C. After bioanalysis, the area under the plasma concentration–time curve (AUC) was determined by the trapezoidal rule with extrapolation to time infinity followed by calculation of systemic clearance (CL), apparent volume of distribution (Vd), and half-life (t½).

Data set [3] in a line: in vitro. The procedure:
(§1) The in vitro BBB model, consisting of CD34^+ endothelial cells (ECs) derived from hematopoietic stem cells in co-culture with bovine brain pericytes, was established as described by Cecchelli et al.. Written and informed consent was obtained for the collection of human umbilical cord blood, in compliance with French legislation. […] All experiments were carried out in line with the authorized protocol.
(§2) These isolated CD34+ cells were cultured in EGM-2, supplemented with 20% (v:v) FBS and 50 ng/mL vascular endothelial growth factor on 1% (w:v) gelatine-coated 24-well plates (2 × 10^5 cells/well). After 15–20 days, ECs are seen in the culture dish. For each experiment, the cells were expanded in 1% (w:v) gelatine-coated T75 flasks (BD Biosciences, Le Pont-de-Claix, France) in EGM-2. Bovine brain pericytes were isolated and characterized as described by Vandenhaute et al.. Sub-clones were cultured in Dulbecco’s Modified Eagle’s Medium supplemented with 20% (v:v) FBS, 2 mM L-glutamine, 50 µg/mL gentamycin, and 1 ng/mL basic fibroblast growth factor. At confluency, 5 × 10^4 cells were seeded in ECM-5 with 5% (v:v) FBS, 50 µg/mL gentamycin, and 0.5% endothelial cell growth factor in gelatine-coated 12-well plates (Costar, Corning Inc., New York, NY, USA). CD34^+-derived ECs were seeded at 8 × 10^4 cells per Matrigel-coated (BD Biosciences) insert (3401, Corning Inc., NY, USA) and put in co-culture with the bovine brain pericytes, with the pericytes at the bottom of the well, for 6 days to achieve brain-like endothelial cell (BLEC) characteristics (Figure 4b).
(§3) At the beginning of the permeability experiments, inserts with BLEC monolayers were transferred to new abluminal (receiver) compartments previously filled with 1.5 mL of RH buffer, and 500 µL of the compounds dissolved in RH buffer, with the addition of the paracellular marker sodium fluorescein (NaFlu), were added to the luminal (donor) compartment. After 3 h of incubation at 37 °C, with a shaking velocity of 60 rpm, aliquots were taken from the donor and receiver compartment. The BLEC monolayers were washed twice with cold RH buffer and lysed with RLT Lysis buffer. The samples were kept at −20 °C pending analysis in low-binding tubes.
(§4) An increase in the permeability to NaFlu in the presence of the peptide can indicate an increase in paracellular leakage and consequent loss of barrier integrity. To evaluate the ability of test compounds to cross Matrigel-coated filters without cells and to control for the adsorption to plastics and/or Matrigel, the NaFlu and peptide’s permeability over inserts without cells were also assessed. Mass balance (M.B%) was calculated from the amount of compound recovered in both compartments at the end of the experiment divided by the total amount added to the donor compartment at the start of the experiment.
(§5) Samples from both compartments as well as the lysed endothelial cells were analysed for fluorescence using a Synergy H1 (Biotek) set to quantify NaFlu (wavelengths Excitation 490 nm and Emission 525 nm) and with UPLC-MS/MS to assess the permeability and cellular uptake of the peptides. All experiments were performed in triplicate (n = 3 independent experiments per concentration and cCPPs).
(§6) Papp is the apparent permeability, J is the rate of appearance of the compound in the receiver compartment (amount/sec), and C0 is the concentration in the donor compartment at the start of the experiment (amount/mL).
The source holds these as a separate data set.

Data set [4] concerns brain-like endothelial cells (BLECs). The data set can be described thus: in vitro. The method, then:
as §1, §2, §3, §4, §5, §6

A short description of data set [5]: in vitro. Conditions: rat, undiluted plasma, pH 7.4, Fraction unbound in plasma, fu,plasma, equilibrium dialysis 6 h 37 °C. On the technique in general: In equilibrium dialysis free small molecules cross a membrane that holds back macromolecules.
Protocol: Peptide binding to plasma proteins, brain tissue homogenate, and lung tissue homogenate as well as to neuronal and astrocyte cell culture homogenates was investigated using equilibrium dialysis [47]. Undiluted plasma and brain from three peptide-naïve rats were used in the experiment. The brain homogenate was prepared by homogenizing 1 part brain with 4 parts of phosphate-buffered saline (PBS, pH 7.4). […] Semi-permeable membranes with a molecular weight cut-off of 12–14 kDa were used and placed in an HTD96b apparatus (HTDialysis, Gales Ferry, CT, USA). The undiluted plasma and respective homogenates were spiked with individual peptide to a concentration of 1 µM and were dialyzed against PBS (pH 7.4). Five technical replicates were prepared per biological replicate. The experiment was run for 6 h at 37 °C in a MaxQ4450 shaker (Thermo Fisher Scientific, NinoLab, Sweden) at 200 rpm. […] Aliquots (80 µL) were taken from the buffer and plasma/homogenate sides. To compensate for any differences in matrix during bioanalysis, the plasma and homogenate samples were mixed with equal volumes of blank buffer, and the buffer samples were mixed with an equal volume of relevant blank plasma/homogenate. Spiked plasma and respective homogenate samples were incubated to control for relative recovery and thermal stability of the peptides in respective matrices.
The unbound fraction in undiluted plasma was calculated using Equation (5), where Cbuffer is the unbound concentration of peptide in the buffer and Cplasma is the total concentration of peptide in plasma at 6 h. The binding of peptide in various homogenates was assessed in two steps. First, the fraction of unbound peptide in the diluted homogenate, fu,h,D, was calculated using Equation (6), where Chomogenate is the total concentration of peptide in respective homogenate at 6 h. Second, the correction for the dilution was implemented as described in Equation (7), where D is the dilution factor used in the preparation [47]. D was 5 for brain and lung homogenates and on average 35.3 for the cell culture studies, as determined based on the total protein content and the total volume of lysate. (5) fu,plasma=Cbuffer/Cplasma (6) fu,h,D=Cbuffer/Chomogenate (7) fu,tissue/cell=1/D/((1/fu,h,D )−1)+1/D
The mark [6] stands for this setting: brain tissue homogenate, equilibrium dialysis.

The term fraction unbound denotes the share of the substance not bound to proteins or other matrix. A word on the Kp: it is tissue or fluid exposure divided by exposure in the circulation. For orientation: AUC(0-inf) means total exposure, with the tail of the curve extrapolated. Lower therefore signals less exposure. Broadly, the Vd is the apparent volume that relates the amount in the body to the concentration in plasma or blood. In general, clearance refers to the volume of plasma or blood freed of the substance per unit of time. Low values mean inefficient removal, high ones efficient removal. What is called half-life is how long it takes for the measured level to halve. In general, Papp refers to the rate of passage across a membrane or cell layer, normalised by area and donor concentration. In the case of `CC(C)C[C@@H]1NC(=O)CNC(=O)[C@H](CC(N)=O)NC(=O)[C@H](CCCNC(=N)N)NC(=O)[C@H]([C@@H](C)O)NC(=O)[C@@H]2CSSC[C@@H]3NC(=O)[C@H]([C@@H](C)O)NC(=O)CNC(=O)CNC(=O)[C@H](C(C)C)NC(=O)[C@@H]4CSSC[C@H](NC(=O)[C@H]([C@@H](C)O)NC(=O)[C@H](CSSC[C@H](NC(=O)[C@H](C(C)C)NC(=O)[C@@H]5CCCN5C1=O)C(=O)NCC(=O)N[C@@H](CCC(=O)O)C(=O)N[C@@H]([C@@H](C)O)C(=O)N4)NC(=O)CNC(=O)[C@@H]1CCCN1C(=O)[C@H]([C@@H](C)O)NC(=O)[C@H](CC(N)=O)NC3=O)C(=O)N[C@@H](CO)C(=O)N[C@@H](Cc1c[nH]c3ccccc13)C(=O)N1CCC[C@H]1C(=O)N[C@@H](C(C)C)C(=O)N2` [Kalata B1], the “Bound to brain tissue constituents” value in “in vitro [1]” (setting [6]) was 93%. Besides, the free fraction (fraction unbound) in “in vitro [1]” (rat, brain homogenate) was found to be 0.0639 ± 0.0072. For the same compound, in data set [2], the Kp at 4 h was 0.23; the Kp uu was determined as 0.005; the “Kp,uu,brain as percent equilibrating across the BBB” value stood at 0.5%; the “Total brain-to-plasma concentration ratio, Kp,brain” value amounted to 0.234 ± 0.083. Moreover, in data set [2], the “Unbound brain-to-plasma concentration ratio, Kp,uu,brain” value is 0.00479 ± 0.0023 and the “Total steady-state plasma concentration, Cplasma,ss” value came out at 1096 nmol/L. Further, the “Half-life, t½” value in the data set “in vivo” (plasma) is 35.8 ± 3.52 min. In “in vivo” (in vivo), this compound gave an AUC(0-inf) of 2800 ng·h/mL, a Vd of 0.322 ± 0.0887 L/kg and a clearance of 1.6 ± 0.396 mL/min/kg. In the data set “in vivo” (in vivo, plasma), this compound displayed a half-life of 35 min. Further, in the data set “in vitro [3]” (Endothelial permeability, Pe (average across concentrations), BLEC monolayer, 3 h, 37 °C), the Papp was 3.83 ×10⁻⁶ cm/s. In addition, the Papp in the data set “in vitro [3]” (Papp, human in vitro BBB model, value used in simulation (Table S3)) is 3.19 ×10⁻⁶ cm/s. The “Percent of the initial amount in the lysed endothelial cells” value (“Percent of the initial amount” below) in data set [4] (BLECs exposed to 1000 nM peptide) is listed as 0.09%. For the same compound, in data set [4] (BLECs exposed to 2000 nM peptide), the “Percent of the initial amount” value stood at 0.23%. In addition, the “Percent of the initial amount” value in data set [4] (BLECs exposed to 4000 nM peptide) is recorded as 3.50%. In addition, in data set [4] (BLECs pre-exposed to 500 nM peptide), the “Percent of the initial amount” value worked out at 0.19%.

As usually defined, the Papp A→B is how fast a substance crosses the layer from the apical side. Regarding `CC[C@H](C)[C@@H]1NC(=O)[C@@H]2CCCN2C(=O)[C@@H]2CCCN2C(=O)[C@H]([C@@H](C)CC)NC(=O)[C@H](CO)NC(=O)[C@H](CCCCN)NC(=O)[C@H]([C@@H](C)O)NC(=O)[C@@H]2CSSC[C@H](NC1=O)C(=O)N[C@@H](Cc1ccccc1)C(=O)N1CCC[C@H]1C(=O)N[C@@H](CC(=O)O)C(=O)NCC(=O)N[C@@H](CCCNC(=N)N)C(=O)N2` [SFTI-1, sunflower trypsin inhibitor-1], in the data set “in vitro [1]” (setting [6]), the “Brain tissue binding (in words)” value was “almost no brain tissue-binding capacity”. The compound further yielded a fraction unbound at 6 h, 1 µM in the data set “in vitro [1]” (rat, brain homogenate (1 part brain with 4 parts PBS), pH 7.4) of 0.951 ± 0.115. In data set [2], the concentration ratio (Kp) at 4 h is 0.06; the Kp uu was 0.13; the “Kp,uu,brain as percent equilibrating across the BBB” value came out at 13%; the “Total brain-to-plasma concentration ratio, Kp,brain” value amounted to 0.0618 ± 0.0318. In data set [2], the “Unbound brain-to-plasma concentration ratio, Kp,uu,brain” value came to 0.129 ± 0.0698 and the “Total steady-state plasma concentration, Cplasma,ss” value worked out at 400 nmol/L. The unbound share (fraction unbound) at 6 h, 1 µM in “in vitro [5]” stood at 0.94. Further, the “Total plasma concentration post 120 min time point (below the quantification limit)” value in “in vivo” (10 min infusion 0.5 mg/kg) is below 5 ng/mL. In addition, in “in vivo” (plasma), the “Half-life, t½” value was 20.3 ± 3.50 min; the AUC(0-inf) was 1290 ng·h/mL; the Vd came to 0.191 ± 0.0344 L/kg; the clearance was 1.82 ± 0.48 mL/min/kg. In addition, the half-life in “in vivo” (plasma) stood at 20 min. Moreover, the apical-to-basolateral permeability (Papp A→B) at 3 h in the data set “in vitro [3]” (human, pH 7.4) was determined as 2.62 ×10⁻⁶ cm/s. The apparent permeability coefficient (Papp) at 3 h in “in vitro [3]” (human, pH 7.4, Endothelial permeability, Pe (average across concentrations), BLEC monolayer, 3 h, 37 °C) was 3.8 ×10⁻⁶ cm/s. Further, the “Detection in the lysed endothelial cells” value in data set [4] (BLECs at end of transport experiment) is “did not detect”.
